Test results from ChEMBL document CHEMBL1909046, “DrugMatrix in vitro pharmacology data”.

Assays:
[1] = target: 5-hydroxytryptamine receptor 6 (Homo sapiens, UniProt P50406); format: cell membranes, HeLa, Membrane; also: in other assays of this panel Not Active means under 50% inhibition at 10 µM
Substance-K receptor = target: T1, Substance-K receptor (Homo sapiens, UniProt P21452); format: cell membranes, CHO, Membrane; conditions: cho; also: in other assays of this panel Not Active means under 50% inhibition at 10 µM
T1 sequence (P21452 whole entry): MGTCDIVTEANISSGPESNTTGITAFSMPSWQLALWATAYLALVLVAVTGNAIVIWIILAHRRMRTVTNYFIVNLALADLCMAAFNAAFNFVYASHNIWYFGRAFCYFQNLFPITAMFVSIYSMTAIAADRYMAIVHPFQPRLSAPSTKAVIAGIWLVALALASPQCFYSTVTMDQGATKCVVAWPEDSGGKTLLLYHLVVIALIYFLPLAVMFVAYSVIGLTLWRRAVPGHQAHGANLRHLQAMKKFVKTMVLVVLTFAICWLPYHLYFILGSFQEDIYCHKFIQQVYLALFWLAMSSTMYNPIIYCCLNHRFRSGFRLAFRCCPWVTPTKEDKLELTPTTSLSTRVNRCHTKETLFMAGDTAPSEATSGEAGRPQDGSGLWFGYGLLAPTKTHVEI

Progesterone receptor = target: T2, Progesterone receptor (Bos taurus, UniProt Q690N0); assay: DRUGMATRIX: Progesterone radioligand binding (ligand: [3H] R-5020); format: tissue-based, Uterus; conditions: Not Active = under 50% inhibition at 10 µM
T2 sequence (Q690N0 whole entry): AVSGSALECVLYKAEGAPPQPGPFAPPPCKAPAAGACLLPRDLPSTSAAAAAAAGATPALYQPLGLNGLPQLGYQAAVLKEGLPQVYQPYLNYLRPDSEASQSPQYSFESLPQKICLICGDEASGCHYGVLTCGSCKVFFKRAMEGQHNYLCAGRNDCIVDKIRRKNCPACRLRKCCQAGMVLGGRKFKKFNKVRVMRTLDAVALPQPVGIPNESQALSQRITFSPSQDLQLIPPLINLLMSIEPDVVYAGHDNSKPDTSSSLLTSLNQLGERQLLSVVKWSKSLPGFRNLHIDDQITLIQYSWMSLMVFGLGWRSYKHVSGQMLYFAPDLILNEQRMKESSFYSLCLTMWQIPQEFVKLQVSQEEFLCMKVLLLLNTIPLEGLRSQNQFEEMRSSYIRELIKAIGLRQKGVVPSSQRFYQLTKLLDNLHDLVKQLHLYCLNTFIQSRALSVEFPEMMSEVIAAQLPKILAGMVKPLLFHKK

Androgen receptor = target: T3, Androgen receptor (Rattus norvegicus, UniProt P15207); also: in other assays of this panel Not Active means under 50% inhibition at 10 µM
T3 sequence (P15207 whole entry): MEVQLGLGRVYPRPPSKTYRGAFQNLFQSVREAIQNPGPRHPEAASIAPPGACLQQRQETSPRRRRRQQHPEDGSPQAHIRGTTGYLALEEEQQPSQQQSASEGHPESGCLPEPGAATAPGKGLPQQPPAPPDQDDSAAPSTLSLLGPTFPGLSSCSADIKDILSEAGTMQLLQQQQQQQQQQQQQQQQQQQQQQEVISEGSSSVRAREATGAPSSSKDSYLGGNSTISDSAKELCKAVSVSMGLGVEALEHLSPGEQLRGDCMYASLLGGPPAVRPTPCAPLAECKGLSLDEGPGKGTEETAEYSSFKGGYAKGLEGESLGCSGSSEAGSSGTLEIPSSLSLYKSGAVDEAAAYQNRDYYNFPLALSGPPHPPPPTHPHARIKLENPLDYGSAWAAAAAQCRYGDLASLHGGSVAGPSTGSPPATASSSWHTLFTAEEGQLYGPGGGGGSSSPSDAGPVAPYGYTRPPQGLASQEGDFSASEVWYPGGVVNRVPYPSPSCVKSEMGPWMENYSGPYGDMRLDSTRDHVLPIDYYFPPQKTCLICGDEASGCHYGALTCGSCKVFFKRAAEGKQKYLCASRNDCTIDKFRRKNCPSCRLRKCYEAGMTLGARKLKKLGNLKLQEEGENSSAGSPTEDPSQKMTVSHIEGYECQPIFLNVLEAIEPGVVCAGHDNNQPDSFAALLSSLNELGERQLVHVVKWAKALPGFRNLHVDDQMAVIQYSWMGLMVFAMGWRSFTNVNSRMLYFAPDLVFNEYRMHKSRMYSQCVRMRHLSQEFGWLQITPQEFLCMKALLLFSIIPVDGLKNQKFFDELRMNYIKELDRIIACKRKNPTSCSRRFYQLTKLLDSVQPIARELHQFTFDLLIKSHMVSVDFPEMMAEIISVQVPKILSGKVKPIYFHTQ

[2] = target: T4, Alpha-1A adrenergic receptor (Rattus norvegicus, UniProt P43140); assay: DRUGMATRIX: Alpha-1A adrenergic receptor radioligand binding (ligand: prazosin); format: cell membranes, Wistar, Submaxillary gland, Membrane; conditions: Not Active = under 50% inhibition at 10 µM
T4 sequence (P43140 whole entry): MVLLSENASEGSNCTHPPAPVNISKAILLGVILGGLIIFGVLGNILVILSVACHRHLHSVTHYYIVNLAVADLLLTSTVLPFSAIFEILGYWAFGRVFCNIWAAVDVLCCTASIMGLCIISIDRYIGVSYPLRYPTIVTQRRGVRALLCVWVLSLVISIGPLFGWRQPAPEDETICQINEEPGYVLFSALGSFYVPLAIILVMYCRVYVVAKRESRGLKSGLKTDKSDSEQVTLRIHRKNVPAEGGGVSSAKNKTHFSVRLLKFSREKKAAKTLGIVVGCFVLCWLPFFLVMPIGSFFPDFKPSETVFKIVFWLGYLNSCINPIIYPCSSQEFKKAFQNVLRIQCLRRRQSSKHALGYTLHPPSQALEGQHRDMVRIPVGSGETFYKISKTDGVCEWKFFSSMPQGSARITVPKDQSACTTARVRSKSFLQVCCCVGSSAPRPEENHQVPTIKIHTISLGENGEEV

Estrogen receptor = target: T5, Estrogen receptor (Homo sapiens, UniProt P03372); conditions: sf9; also: in other assays of this panel Not Active means under 50% inhibition at 10 µM
T5 sequence (P03372 whole entry): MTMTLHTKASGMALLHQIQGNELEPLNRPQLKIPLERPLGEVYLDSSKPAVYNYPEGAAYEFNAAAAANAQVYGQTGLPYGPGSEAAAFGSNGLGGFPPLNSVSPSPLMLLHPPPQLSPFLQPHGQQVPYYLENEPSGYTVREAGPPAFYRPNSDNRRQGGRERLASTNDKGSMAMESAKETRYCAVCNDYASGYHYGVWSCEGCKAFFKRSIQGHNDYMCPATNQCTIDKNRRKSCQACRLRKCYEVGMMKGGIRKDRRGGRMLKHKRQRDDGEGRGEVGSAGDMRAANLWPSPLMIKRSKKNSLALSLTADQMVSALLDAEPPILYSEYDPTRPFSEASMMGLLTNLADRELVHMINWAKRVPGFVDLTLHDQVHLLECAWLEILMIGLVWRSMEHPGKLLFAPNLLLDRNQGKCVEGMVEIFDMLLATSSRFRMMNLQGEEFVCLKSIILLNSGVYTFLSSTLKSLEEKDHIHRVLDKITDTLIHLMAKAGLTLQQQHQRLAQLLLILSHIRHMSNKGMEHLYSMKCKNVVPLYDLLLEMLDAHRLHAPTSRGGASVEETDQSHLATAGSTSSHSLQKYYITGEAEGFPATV

Chain of 5-hydroxytryptamine receptor 6 (P50406 whole entry): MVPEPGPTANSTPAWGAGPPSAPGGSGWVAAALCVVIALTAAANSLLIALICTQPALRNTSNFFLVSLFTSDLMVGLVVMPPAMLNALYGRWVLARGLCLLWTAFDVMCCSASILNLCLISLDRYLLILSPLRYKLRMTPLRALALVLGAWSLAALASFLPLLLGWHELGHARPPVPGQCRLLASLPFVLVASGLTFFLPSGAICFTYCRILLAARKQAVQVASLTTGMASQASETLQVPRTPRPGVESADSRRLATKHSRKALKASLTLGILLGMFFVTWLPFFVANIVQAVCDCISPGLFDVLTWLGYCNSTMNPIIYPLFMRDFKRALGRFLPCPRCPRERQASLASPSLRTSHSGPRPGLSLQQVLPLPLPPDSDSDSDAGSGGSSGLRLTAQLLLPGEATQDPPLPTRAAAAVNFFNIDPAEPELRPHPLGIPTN

Compound | IC50 ([1]; hela) | IC50 (Substance-K receptor) | IC50 (Progesterone receptor) | IC50 (Androgen receptor) | IC50 [2] | IC50 (Estrogen receptor) | IC50 ([1]; read-out: IC50) | Ki ([1]; read-out: Ki)
N[C@H](CSC(=S)NCc1ccccc1)C(=O)O | Not Active | Not Active | Not Active | Not Active | Not Active | Not Active | – | –
CC(=O)N[C@@H]1[C@H](Oc2c3cc4cc2Oc2ccc(cc2Cl)[C@@H](O[C@@H]2O[C@@H](CO)[C@@H](O)[C@H](O)[C@@H]2NC(C)=O)[C@@H]2NC(=O)[C@H](NC(=O)[C@@H]4NC(=O)[C@H]4NC(=O)[C@@H](Cc5ccc(c(Cl)c5)O3)NC(=O)[C@H](N)c3ccc(O)c(c3)Oc3cc(O)cc4c3)c3ccc(O)c(c3)-c3c(O[C@H]4O[C@H](CO)[C@@H](O)[C@@H](O)[C@@H]4O)cc(O)cc3[C@@H](C(=O)O)NC2=O)O[C@@H](CO)[C@@H](O)[C@@H]1O | Not Active | Not Active | Not Active | Not Active | Not Active | Not Active | – | –
COc1cc2c(c(OC)c1OC)-c1ccc(OC)c(=O)cc1[C@@H](NC(C)=O)CC2 [COLCHICINE] | Not Active | Not Active | Not Active | Not Active | Not Active | Not Active | – | –
CO[C@H]1/C=C/O[C@@]2(C)Oc3c(C)c(O)c4c(c3C2=O)C2=NC3(CCN(CC(C)C)CC3)NC2=C(NC(=O)/C(C)=C\C=C\[C@H](C)[C@H](O)[C@@H](C)[C@@H](O)[C@@H](C)[C@H](OC(C)=O)[C@@H]1C)C4=O [RIFABUTIN] | Not Active | Not Active | Not Active | Not Active | Not Active | Not Active | – | –
COc1cc(NS(=O)(=O)c2ccc(N)cc2)nc(OC)n1 [SULFADIMETHOXINE] | – | Not Active | Not Active | Not Active | Not Active | Not Active | 1340 nM | 622 nM
C[C@@H](N)[C@H]1CC[C@H](C(=O)Nc2ccncc2)CC1 [Y-27632] | Not Active | Not Active | Not Active | Not Active | Not Active | Not Active | – | –
